Consider five compounds from patent US20250115597A1, “TYK2 INHIBITORS AND COMPOSITIONS AND METHODS THEREOF” (LYNK PHARMACEUTICALS CO. LTD., priority 2021, published 2025).

The nature of one data set: Kinetic solubility. In kind it is physicochemical. The following applies: phosphate buffer, aqueous buffer, kinetic from dmso stock, PBS (pH 7.4), 1% DMSO, room temperature. The procedure: Aliquots of 8 μL of reference and test compound stock solutions (10 mM/5 mM) are added into 792 μL of 100 mM pH 7.4 phosphate buffer. The final DMSO concentration is 1%. Sample tubes are shaken for 2 hours at 1000 rpm at room temperature. Samples are centrifuged at 12000 rpm for 10 min to precipitate un-dissolved particles. And transfer the supernatants to a new tube or plate. Add 5 μL of samples (no diluted, 10 times diluted and 100 times diluted) and standard curve samples to 95 μL of ACN containing IS for LC-MS/MS analysis.

In another data set the target is T1, TYK2-JH2 domain (Homo sapiens, UniProt P29597).
T1 construct: IC50 on JH2 domain activity (nM)
T1 sequence (P29597 589-875 limits assumed): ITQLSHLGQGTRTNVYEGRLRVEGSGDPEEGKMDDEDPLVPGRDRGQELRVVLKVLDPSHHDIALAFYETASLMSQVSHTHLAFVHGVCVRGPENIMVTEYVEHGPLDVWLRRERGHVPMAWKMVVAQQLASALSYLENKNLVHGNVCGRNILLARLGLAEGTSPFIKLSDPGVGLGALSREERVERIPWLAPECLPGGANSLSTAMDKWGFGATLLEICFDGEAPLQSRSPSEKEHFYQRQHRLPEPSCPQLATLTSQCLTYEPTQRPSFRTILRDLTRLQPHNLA
Kind of data set: Binding activity test for JH2 domain of TYK2 (Tb-antibody/tracer FRET). The following applies: for JAK1/TYK2 selectivity: ratio JAK1-JH2 IC50 / TYK2-JH2 IC50. The method, boiled down:
(§1)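 Compounds tested as 11-point 3-fold serial dilutions against the JH2 domain in a Tb-antibody/tracer FRET binding format. Plates incubated 60 min at 25° C, then overnight at 4° C, before FRET reading.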

The next data set addresses T2, JAK1 (Homo sapiens, UniProt P23458).
T2 construct: purchased Carna Biosciences
Kind of data set: JAK1 kinase activity, microfluidic assay (Caliper EZ Reader II). The following applies: JAK1 5 nM, 1 mM ATP. It is filed as biochemical. The method, boiled down:
(§2)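 Human JAK1, JAK2 or TYK2 enzyme was used in 50 mM HEPES, 10 mM MgCl2, 2 mM DTT and 0.01% Brij35, tuned to 10% conversion of a FAM-labelled peptide. Threefold dilutions of compound (top 5 µM, 1% DMSO) were pre-incubated with enzyme for 10 min, and reactions were stopped with EDTA. Phosphorylation was read by microfluidic mobility shift, and IC50 came from percent-inhibition curves.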

For a further data set, the target named is T3, JAK1-JH2 domain (Homo sapiens, UniProt P23458).
T3 construct: IC50 on JH2 domain activity (nM)
T3 sequence (P23458 583-855 limits assumed): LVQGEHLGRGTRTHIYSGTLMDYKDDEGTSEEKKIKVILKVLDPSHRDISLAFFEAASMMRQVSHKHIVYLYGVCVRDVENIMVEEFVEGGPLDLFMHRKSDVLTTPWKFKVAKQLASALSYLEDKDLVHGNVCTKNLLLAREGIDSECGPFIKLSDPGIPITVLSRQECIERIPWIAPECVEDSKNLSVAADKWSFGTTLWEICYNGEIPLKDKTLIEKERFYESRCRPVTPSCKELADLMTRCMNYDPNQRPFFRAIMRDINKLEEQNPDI
Kind of data set: Binding activity test for JH2 domain of JAK1 (Tb-antibody/tracer FRET). The method, boiled down:
as §1

Data set [1] is described as follows: Plasma protein binding by equilibrium dialysis. The following applies: human plasma, equilibrium dialysis 5 hours at 37° C.; read-out: % Bound (human) (converted). It is filed as in vitro ADME. Summed up: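 Compound spiked into plasma at 0.2 and 2 μM was dialyzed against PBS for 5 h at 37° C with shaking, in duplicate. Plasma and buffer chambers were matrix-matched, protein-precipitated and analysed by LC-MS/MS to derive % unbound, % bound and % recovery.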
On the technique in general: Equilibrium dialysis compares concentrations on both sides of a semipermeable membrane.

For data set [2], the target named is T4, Ba/F3-FL-TYK2-P760L cells (Homo sapiens, UniProt P29597, P760L, cells depend on it).
T4 construct: BaF3-FL-T2P760L (nM)
T4 sequence (P29597 whole entry P760L): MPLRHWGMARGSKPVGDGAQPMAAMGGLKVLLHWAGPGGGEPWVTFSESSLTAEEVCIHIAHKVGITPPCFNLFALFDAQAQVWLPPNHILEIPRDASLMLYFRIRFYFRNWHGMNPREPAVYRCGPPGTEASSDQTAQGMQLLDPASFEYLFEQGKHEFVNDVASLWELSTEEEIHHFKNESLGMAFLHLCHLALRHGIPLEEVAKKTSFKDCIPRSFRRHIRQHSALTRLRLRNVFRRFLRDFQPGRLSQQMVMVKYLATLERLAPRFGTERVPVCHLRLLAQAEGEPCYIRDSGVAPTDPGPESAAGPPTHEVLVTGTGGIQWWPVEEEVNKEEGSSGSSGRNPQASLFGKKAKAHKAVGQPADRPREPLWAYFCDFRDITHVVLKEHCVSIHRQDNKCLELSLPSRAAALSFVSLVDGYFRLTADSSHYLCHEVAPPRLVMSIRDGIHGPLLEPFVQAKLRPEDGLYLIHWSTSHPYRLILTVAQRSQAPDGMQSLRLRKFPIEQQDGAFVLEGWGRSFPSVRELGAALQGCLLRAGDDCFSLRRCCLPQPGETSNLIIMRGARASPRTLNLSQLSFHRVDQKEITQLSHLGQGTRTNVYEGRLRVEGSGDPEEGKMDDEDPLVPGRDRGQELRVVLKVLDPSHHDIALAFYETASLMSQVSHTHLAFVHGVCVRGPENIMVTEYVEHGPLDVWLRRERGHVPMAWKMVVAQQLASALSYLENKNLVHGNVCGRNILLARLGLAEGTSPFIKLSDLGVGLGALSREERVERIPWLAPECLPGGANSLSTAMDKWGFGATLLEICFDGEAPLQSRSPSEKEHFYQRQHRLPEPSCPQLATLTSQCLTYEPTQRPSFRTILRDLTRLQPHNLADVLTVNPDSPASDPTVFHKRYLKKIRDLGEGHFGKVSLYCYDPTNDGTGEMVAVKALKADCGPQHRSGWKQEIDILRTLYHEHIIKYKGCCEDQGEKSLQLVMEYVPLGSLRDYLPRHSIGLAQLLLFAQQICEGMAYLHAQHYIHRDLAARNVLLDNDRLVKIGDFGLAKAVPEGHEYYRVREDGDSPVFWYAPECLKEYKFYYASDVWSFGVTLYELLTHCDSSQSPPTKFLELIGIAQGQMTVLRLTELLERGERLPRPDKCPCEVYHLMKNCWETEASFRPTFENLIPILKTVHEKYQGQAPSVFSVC
Kind of data set: Anti-proliferative assay, Ba/F3-FL-TYK2-P760L cells (Cell-Titer Glo). In kind it is cell-based. The following applies: 72 h, read-out: BaF3-FL-T2P760L IC50. The method, boiled down:
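Ba/F3 cells made IL-3-independent by TEL-fused or full-length mutant JAK-family kinases, seeded at 2000/well and dosed after 24 h with 9 three-fold dilutions topping at 20 μM. Viability after 72 h at 37 °C, 5% CO2 by Cell-Titer Glo ATP luminescence.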

For a further data set, the target named is T5, JAK2 (Homo sapiens, UniProt O60674).
T5 construct: purchased Carna Biosciences
T5 sequence (O60674 whole entry): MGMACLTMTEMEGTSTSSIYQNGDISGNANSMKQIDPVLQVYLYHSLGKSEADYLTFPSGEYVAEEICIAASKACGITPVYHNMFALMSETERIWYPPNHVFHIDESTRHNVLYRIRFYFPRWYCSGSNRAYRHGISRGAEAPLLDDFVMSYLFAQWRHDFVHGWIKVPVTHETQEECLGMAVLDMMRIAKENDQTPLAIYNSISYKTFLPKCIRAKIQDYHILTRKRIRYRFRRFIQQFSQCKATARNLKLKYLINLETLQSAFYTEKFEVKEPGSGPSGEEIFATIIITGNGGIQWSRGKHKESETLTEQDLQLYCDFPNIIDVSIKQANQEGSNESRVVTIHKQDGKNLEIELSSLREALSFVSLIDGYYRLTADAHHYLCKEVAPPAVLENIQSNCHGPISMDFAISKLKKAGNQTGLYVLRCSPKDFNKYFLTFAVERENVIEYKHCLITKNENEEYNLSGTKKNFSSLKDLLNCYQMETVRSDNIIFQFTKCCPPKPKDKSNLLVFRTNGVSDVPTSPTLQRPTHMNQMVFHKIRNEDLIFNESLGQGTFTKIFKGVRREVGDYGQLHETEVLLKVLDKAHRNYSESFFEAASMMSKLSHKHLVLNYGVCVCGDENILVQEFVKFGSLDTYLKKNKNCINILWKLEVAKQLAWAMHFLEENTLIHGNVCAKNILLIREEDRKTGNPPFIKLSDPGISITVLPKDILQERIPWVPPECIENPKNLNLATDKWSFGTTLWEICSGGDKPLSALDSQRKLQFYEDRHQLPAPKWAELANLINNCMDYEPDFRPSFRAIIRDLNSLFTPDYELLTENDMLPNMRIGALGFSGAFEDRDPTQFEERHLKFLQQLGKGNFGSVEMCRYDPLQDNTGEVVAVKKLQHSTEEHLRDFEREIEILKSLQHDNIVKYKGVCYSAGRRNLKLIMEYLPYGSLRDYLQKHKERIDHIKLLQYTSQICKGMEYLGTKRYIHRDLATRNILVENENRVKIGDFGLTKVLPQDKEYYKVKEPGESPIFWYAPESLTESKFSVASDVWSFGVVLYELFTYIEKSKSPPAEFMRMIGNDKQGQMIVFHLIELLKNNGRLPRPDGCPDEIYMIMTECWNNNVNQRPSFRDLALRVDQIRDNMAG
Kind of data set: JAK2 kinase activity, microfluidic assay (Caliper EZ Reader II). The following applies: JAK2 0.125 nM, 1 mM ATP. In kind it is biochemical. The method, boiled down:
as §2

As usually defined, the solubility is the dissolved amount per volume that the medium holds. Read a high solubility as much dissolved substance. The IC50 is the concentration that gives 50% inhibition. A lower IC50 goes with greater potency.

Converted amounts (≈) assume the structure as drawn. Bounds are passed on as bounds.

T2 sequence (P23458 whole entry): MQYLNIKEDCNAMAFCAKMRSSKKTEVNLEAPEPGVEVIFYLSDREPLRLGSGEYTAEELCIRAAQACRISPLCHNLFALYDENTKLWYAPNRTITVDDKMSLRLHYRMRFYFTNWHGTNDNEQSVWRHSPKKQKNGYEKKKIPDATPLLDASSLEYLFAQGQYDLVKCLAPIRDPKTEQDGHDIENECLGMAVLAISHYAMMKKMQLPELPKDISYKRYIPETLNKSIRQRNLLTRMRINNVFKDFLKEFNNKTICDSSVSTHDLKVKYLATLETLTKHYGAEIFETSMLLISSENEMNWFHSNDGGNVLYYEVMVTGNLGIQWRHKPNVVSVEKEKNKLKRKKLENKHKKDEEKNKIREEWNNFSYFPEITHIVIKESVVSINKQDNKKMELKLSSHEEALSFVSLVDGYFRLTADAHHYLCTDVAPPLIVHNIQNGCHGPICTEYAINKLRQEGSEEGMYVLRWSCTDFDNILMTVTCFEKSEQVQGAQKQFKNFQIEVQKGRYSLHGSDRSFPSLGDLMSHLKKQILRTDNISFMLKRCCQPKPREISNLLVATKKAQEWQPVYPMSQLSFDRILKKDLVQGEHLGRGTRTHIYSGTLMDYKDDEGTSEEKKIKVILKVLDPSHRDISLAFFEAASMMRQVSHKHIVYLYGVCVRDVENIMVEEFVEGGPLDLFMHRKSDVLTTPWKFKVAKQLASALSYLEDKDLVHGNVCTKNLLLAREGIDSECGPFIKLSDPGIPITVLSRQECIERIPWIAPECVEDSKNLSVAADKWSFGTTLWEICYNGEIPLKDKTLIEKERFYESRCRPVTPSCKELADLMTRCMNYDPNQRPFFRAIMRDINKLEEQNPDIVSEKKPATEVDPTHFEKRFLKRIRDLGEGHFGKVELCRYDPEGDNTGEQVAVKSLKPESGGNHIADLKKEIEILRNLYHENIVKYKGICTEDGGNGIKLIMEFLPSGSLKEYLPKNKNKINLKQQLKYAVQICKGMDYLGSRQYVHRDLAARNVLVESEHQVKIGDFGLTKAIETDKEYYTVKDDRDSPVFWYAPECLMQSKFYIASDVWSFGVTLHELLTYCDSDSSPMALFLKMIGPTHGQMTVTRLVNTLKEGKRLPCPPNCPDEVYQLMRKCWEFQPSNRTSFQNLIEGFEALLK

`[2H]C([2H])([2H])NC(=O)c1cnc(NC(=O)C2CC2)cc1Nc1ccc2cnn(CC)c2c1OC` [Example 44, 6-(Cyclopropanecarboxamido)-4-((1-ethyl-7-methoxy-1H-indazol-6-yl)amino)-N-(methyl-d3)nicotinamide]: the solubility at 2 h in “Kinetic solubility” was 38.7 µM (≈ 15.9 µg/mL). Moreover, the IC50 on TYK2-JH2 domain was 0.286 nM; on JAK1, above 5000 nM; at JAK1-JH2 domain it was 9.89 nM; against JAK2 it was above 5000 nM. Moreover, on TYK2-JH2 domain, the JAK1/TYK2 selectivity is 34.6. In data set [1], the fraction unbound at 5 h is 0.068. Further, in data set [2], the GI50 amounted to 56.2 nM.
`[2H]C([2H])([2H])NC(=O)c1cnc(NC(=O)C2CC2)cc1Nc1ccn2ncc(C#N)c2c1OC` [Example 165, 4-((3-Cyano-4-methoxypyrazolo[1,5-a]pyridin-5-yl)amino)-6-(cyclopropanecarboxamido)-N-(methyl-d3)nicotinamide]: the half-maximal inhibitory concentration (IC50) is 0.278 nM on TYK2-JH2 domain, above 5000 nM at JAK1, 18.6 nM at JAK1-JH2 domain and above 5000 nM at JAK2. In addition, at TYK2-JH2 domain, the JAK1/TYK2 selectivity worked out at 67.0. In addition, the fraction unbound at 5 h in data set [1] was 0.107. In addition, in data set [2], the GI50 stood at 98.2 nM.
`[2H]C([2H])([2H])NC(=O)c1cnc(NC(=O)C2CC2)cc1Nc1ccc2cnn(CC(F)(F)F)c2c1OC` [Example 129, 6-(Cyclopropanecarboxamido)-4-((7-methoxy-1-(2,2,2-trifluoroethyl)-1H-indazol-6-yl)amino)-N-(methyl-d3)nicotinamide] gave a solubility at 2 h in “Kinetic solubility” of 13.6 µM (≈ 6.33 µg/mL). At TYK2-JH2 domain, the 50% inhibitory concentration (IC50) was found to be 0.416 nM and the JAK1/TYK2 selectivity is on record as 49.9. Moreover, the IC50 at JAK1-JH2 domain was 20.8 nM. Moreover, the fraction unbound at 5 h in data set [1] was 0.034. Also, in data set [2], the GI50 was determined as 69.3 nM.
As to `[2H]C([2H])([2H])NC(=O)c1cnc(Nc2ccc(F)cn2)cc1Nc1nn(C)c2ccn(CC)c(=O)c12` [Example 139, 4-((5-Ethyl-1-methyl-4-oxo-4,5-dihydro-1H-pyrazolo[4,3-c]pyridin-3-yl)amino)-6-((5-fluoropyridin-2-yl)amino)-N-(methyl-d3)nicotinamide], on TYK2-JH2 domain, the IC50 was determined as 0.524 nM and the JAK1/TYK2 selectivity was 23.6. At JAK1-JH2 domain, this compound had a half-maximal inhibitory concentration (IC50) of 12.4 nM. Further, the fraction unbound at 5 h in data set [1] is 0.039. For the same compound, the GI50 in data set [2] is 33.1 nM.
`[2H]C([2H])([2H])NC(=O)c1cnc(NC(=O)C2CC2)cc1Nc1ncc2cnn(CC)c2c1OC` [Example 262, 6-(Cyclopropanecarboxamido)-4-((1-ethyl-7-methoxy-1H-pyrazolo[4,3-c]pyridin-6-yl)amino)-N-(methyl-d3)nicotinamide] gave a solubility at 2 h in “Kinetic solubility” of 17.6 µM (≈ 7.28 µg/mL). The 50% inhibitory concentration (IC50) at TYK2-JH2 domain was 0.22 nM; at JAK1, above 5000 nM; on JAK1-JH2 domain, 14.8 nM; against JAK2 it was above 5000 nM. For the same compound, the JAK1/TYK2 selectivity at TYK2-JH2 domain was determined as 67.1. Moreover, the fraction unbound at 5 h in data set [1] was 0.124. Also, the GI50 in data set [2] amounted to 41.6 nM.
